Assay [1] has as its system CD8+ T cells in PBMCs from patients with metastatic castrate-resistant prostate cancer. The assay is described as follows: Patient PBMC restimulation assay (TNFα+IFNγ+ CD8+ T cells). It is filed as cell-based, human. Particulars: 9mer peptide; for Maximum frequency of TNFα+IFNγ+CD8+ T cells (Percent): greatest frequency among all tested PBMC donors; for Maximum fold change over negative control: TNFα+IFNγ+CD8+ T cells, highest across PBMC donors. The method, then:
PBMCs from human patients with metastatic castrate-resistant prostate cancer were thawed using media (RPMI 1640 supplemented with Glutamax, 10% HI FBS, and IX Sodium Pyruvate). Cells were counted and plated in a 96 well round bottom microplate at a concentration of 250,000 viable cells per well. Lyophilized peptides were solubilized in 100% DMSO and diluted in media to 10 μg/mL. Neoantigen peptides were added in equal volume to PBMCs for a final concentration of 5 μg/mL. CEF Peptide Pool “Plus” (Cellular Technologies, Ltd.) was utilized as a positive control and DMSO at the same final concentration as the experimental peptides was utilized as a negative control. Human IL-15 (Peprotech) was added to all wells at final concentration of 10 ng/mL.
Plates were incubated at 37° C. (5% CO2) for a total of 13 days. Media was refreshed every 2 days with IL-15 (10 ng/mL final concentration) and IL-2 (R&D systems, 10 IU/mL final concentration). On day 12, PBMCs were re-stimulated with identical experimental peptides or controls, at same concentration as peptide stimulation on Day 1. After 1-hour incubation, protein Inhibitor Cocktail (eBioscience) was added to every well and plate was incubated overnight.
On day 13, cells were stained for intracellular flow cytometry analysis. The cells were washed with PBS and stained with Live/Dead Fixable Aqua Dead Cell stain (ThermoFisher). Following the live/dead stain, cells were blocked using Biotin-Free Fc Receptor Blocker (Accurate Chemical & Scientific Corp). Extracellular cellular flow panel (1 μL/antibody per well in 50 μL) consisted of CD3 PerCP-Cy5.5 (Biolegend), CD4 BV421 (Biolegend), and CD8 APC-Cy7 (Biolegend). After extracellular staining, cells were fixed using Foxp3/Transcription Factor Staining Buffer Set (eBioscience) and stained for intracellular proteins (1:50 dilution) using TNFα FITC (R&D Systems) and IFNγ BV785 (Biolegend). Cells were washed and resuspended in stain buffer and analyzed using a BD Celesta flow cytometer.
Flow cytometry cell staining analysis was completed using Flow Jo v10. Cells were gated on live, singlet, CD3+ cells. The CD8+ T cells were analyzed for TNFα/IFNγ expression and the frequency of double positive TNFα/IFNγ CD8+ T cells was recorded. Responses were assessed to be positive when the frequency of double positive TNFα/IFNγ CD8+ T cells due to stimulation with an experimental peptide was increased greater than or equal to 2-fold over the DMSO only negative control for that patient. Peptides were analyzed in 1 to 7 patient samples.
The 9 mer fragments shown in Table 13 were assessed for their ability to activate T cells using the Patient PBMC restimulation assay described in Example 1 using TNFα and IFNγ production by CD8^+ T cells as a readout. Self-antigens shown in Table 15 were also used in the assays. […] PBMCs from ten patients were evaluated.

The target in the next assay is HLA-B*07:02 (Homo sapiens, UniProt P01889). The assay is described as follows: In vitro binding to class I MHC (UV peptide exchange, HLA class I ELISA). Particulars: 100% = same binding as positive control peptide. On the procedure:
The 9 mer peptides identified by bioinformatics analysis were analyzed for their binding propensities to 6 common HLA class I alleles (HLA-A*01:01, A*02:01, A*03:01, A*24:02, B*07:02, B*08:01). The principle of the method is briefly described below and consists of two parts, one involving exchange of peptide with a positive control induced by Ultraviolet (UV) radiation, and the second is an enzyme immunoassay to detect stable HLA-peptide and empty HLA complexes. HLA-bound peptides are critical for the stability of the HLA complex. A conditional HLA class I complex was stabilized by an UV-labile peptide utilizing a different peptide (Pos) for each HLA (Pos: HLA-A*01:01: […](SEQ ID NO: 409), HLA-A*02:01: […] (SEQ ID NO: 410), HLA-A*03:01: […] (SEQ ID NO: 411), HLA-A*24:02: […] (SEQ ID NO: 412), HLA-B*07:02: […] (SEQ ID NO: 413), HLA-B*08:01: […] (SEQ ID NO: 414), which could be cleaved by UV irradiation when bound to the HLA molecule. Upon cleavage, the resulting peptide fragments dissociated from the HLA class I complex since their length was insufficient to bind stably to HLA. Under the conditions in which peptide cleavage was performed (neutral pH, on melting ice), the peptide-free HLA complex remained stable.
The exchange efficiency between the peptide of interest and Pos was analyzed using an HLA class I ELISA. The combined technologies allowed the identification of ligands for an HLA molecule of interest which are potentially immunogenic.
Exchange control peptide Pos was a high affinity binder to the relevant HLA class I allele while exchange control peptide Neg was a non-binder. The UV control represented UV-irradiation of conditional HLA class I complex in the absence of a rescue peptide.
The HLA class I ELISA is an enzyme immunoassay based on the detection of beta2-microglobulin (B2M) of (peptide-stabilized) HLA class I complexes. To this end streptavidin was bound onto polystyrene microtiter wells. After washing and blocking, HLA complex present in exchange reaction mixtures or ELISA controls was captured by the streptavidin on the microtiter plate via its biotinylated heavy chain. Non-bound material was removed by washing. Subsequently, horseradish peroxidase (HRP)-conjugated antibody to human B2M was added. The HRP-conjugated antibody binds only to an intact HLA complex present in the microtiter well because unsuccessful peptide exchange results in disintegration of the original UV-sensitive HLA complex upon UV illumination. In the latter case B2M was removed during the washing step. After removal of non-bound HRP conjugate by washing, a substrate solution was added to the wells. A colored product formed in proportion to the amount of intact HLA complex present in the samples. After the reaction was terminated by the addition of a stop solution, absorbance was measured in a microtiter plate reader. The absorbance was normalized to the absorbance of an exchange control peptide (represents 100%). Suboptimal HLA binding of peptides with a moderate to low affinity for HLA class I molecules can also be detected by this ELISA technique (Rodenko, B et al. (2006) Nature Protocols 1: 1120-32).
Peptides that had 10% or greater exchange efficiency in one of the 6 HLA alleles were considered for further immunogenicity testing and analysis.
Binding of select neoepitopes to HLA-A*01:01, HLA-A*02:01, HLA-A*03:01, HLA-A*24:02, HLA-B*07:02 and HLA-B*08:01 was evaluated using the assay described in Example 1. […] As a criterion for further evaluation, peptides with an exchange rate of at least 10% with the corresponding Pos peptide for at least one of the 6 HLA alleles that we considered for further evaluation. The exchange rates with the allele specific Pos peptides, of the 24 neoantigens so identified are summarized below in Table 17. Higher percentages correspond to stronger binding to the HLA allele.

Turning to “P56 (PKSEVRAKCKFSILNAK; listed as Homo sapiens) [Neoantigen P56]”, the “Maximum frequency of TNFα+IFNγ+CD8+ T cells (Percent)” value (shortened to “Maximum frequency … (Percent)”) in assay [1] was 1.620%.
Same read-out and setting: the value for “P61 (MFENGCYLGRQKRFKCE; listed as Homo sapiens) [Neoantigen P61]” was 0.084%.
The same measure, in the same setting: in the case of “P37 (MAGGVLRRLLCREPDRDGDKGASREETVVPLHIGDPVVLPGIGQCYSALF; listed as Homo sapiens) [Neoantigen P37]” it was 1.160%; in that of “P48 (VQPIARELYQFTFDLLI; listed as Homo sapiens) [Neoantigen P48]”, 0.220%.
Same read-out and setting: the value for “NSKMALNSLNSIDDAQLTRIAPPRSHCCFWEVNAP (listed as Homo sapiens) [Neoantigen P35]” was 0.064%; that for “YEAGMTLGGKILFFLFLLLPLSPFSLIF (listed as Homo sapiens) [Neoantigen P87]” was 0.120%.
With “YEAGMTLGEKFRVGNCKHLKMTRP (listed as Homo sapiens) [Neoantigen P82]”, the “Maximum frequency … (Percent)” value in assay [1] turned out to be 0.970%.
In the case of “P73 (DSSGNLLERNSFEVRV; listed as Homo sapiens) [Neoantigen P73]”, in assay [1], the “Maximum frequency … (Percent)” value stood at 0.110%.
With “SLYHREKQLIAMDSAI (listed as Homo sapiens) [Neoantigen P22]”, in assay [1], the “Maximum fold change over negative control” value (“Maximum fold change” below) turned out to be 5.00 and the “Maximum frequency … (Percent)” value worked out at 0.120%. Moreover, the “Exchange rate with allele specific Pos peptide, HLA-B*07:02” value in the assay with HLA-B*07:02 was found to be 8.3%.
With “GVPGDSTRRAVRRMNTF (listed as Homo sapiens) [Neoantigen P16]”, the “Maximum frequency … (Percent)” value in assay [1] is 4.620%.
Consider “P27 (LHPQRETFTPRWSGANYWKLAFPVGAEGTFPAAATQRGVVRPA; listed as Homo sapiens) [Neoantigen P27]”, for which, in assay [1], the “Maximum frequency … (Percent)” value came out at 0.430%.
As for “P59 (LHPDSGNMVENGCYLRR; listed as Homo sapiens) [Neoantigen P59]”, the “Maximum frequency … (Percent)” value in assay [1] worked out at 3.010%.
As to “P17 (GVPGDSTRRAVRRMNTF; listed as Homo sapiens) [Neoantigen P17]”, in assay [1], the “Maximum frequency … (Percent)” value is given as 0.130%.
Same read-out and setting: in the case of “P46 (DDRNTFDIVWWCPMSRLRLALTVPPSTTTTCVTVPAWAA; listed as Homo sapiens) [Neoantigen P46]” it was 0.140%; in that of “P58 (MMAEIISVHVPKILSGK; listed as Homo sapiens) [Neoantigen P58]”, 5.370%.
On to “P97 (GYLRMQGLMAQRLLLR; listed as Homo sapiens) [Neoantigen P97]”, for which the “Maximum frequency … (Percent)” value in assay [1] came out at 0.160%.
With “P50 (QMAVIQYSCMGLMVFAM; listed as Homo sapiens) [Neoantigen P50]”, the “Maximum frequency … (Percent)” value in assay [1] is 0.190%.
In the case of “P60 (CYLRRQKRLKCEKQPGA; listed as Homo sapiens) [Neoantigen P60]”, the “Maximum frequency … (Percent)” value in assay [1] amounted to 0.340%.

B1: P19 (peptide, listed as Homo sapiens)
chain: WTPIPVLTRWPLPHPPPWRRATSCRMARSSPSATSGSSVRRRCSSLPSWVWNLAASTRPRSTPS
For B1, the “Maximum frequency … (Percent)” value in assay [1] is recorded as 0.480%.

B2: P76 (peptide, listed as Homo sapiens)
chain: VFFKRAAEGFFRMNKLKESSDTNPKPYCMAAPMGLTENNRNRKKSYRETNLKAVSWPLNHT
Turning to B2, in assay [1], the “Maximum fold change” value is 2.30 and the “Maximum frequency … (Percent)” value is on record as 0.170%.

B3: P77 (peptide, listed as Homo sapiens)
chain: B2 chain
On to B3, for which, in assay [1], the “Maximum fold change” value stood at 3.24 and the “Maximum frequency … (Percent)” value is 0.160%.
